In patent US8871767B2, “2-arylimidazo[1,2-B]pyridazine, 2-phenylimidazo[1,2-A]pyridine, and 2-phenylimidazo[1,2-A]pyrazine derivatives” (Hengrui (USA) Ltd., priority 2010, dated 2014) one finds IC50 data, which are given here for 15 compounds.

By IC50 is commonly meant the midpoint of a concentration-inhibition curve.

One test deals with Hedgehog pathway activation (GLi-luciferase reporter) in Shh Light II reporter cells. Nature of the test: Hedgehog pathway activation on Shh Light II reporter cells measured by luciferase activity. As to conditions: Mus musculus, Shh Light II, hShh activation, read-out: Shh (IC50, inhibition of Hedgehog pathway activation). The format is cell-based. In a few lines: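 Shh Light II reporter cells carrying a hedgehog-responsive GLi-luciferase reporter were stimulated either with 500 nM SAG, a direct Smoothened agonist, or with conditioned media containing human Sonic Hedgehog (hShh). Test compounds were evaluated for blocking this pathway activation, quantified by luciferase activity. Cell viability was monitored in parallel with the Celltiter-Blue® assay.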
Turning to `Cc1ccc(-c2cn3nc(-c4cccnc4O)ccc3n2)cc1NC(=O)C(C)(C)C` [Example 406, N-(5-(6-(2-hydroxypyridin-3-yl)imidazo[1,2-b]pyridazin-2-yl)-2-methylphenyl)pivalamide], the IC50 is 2060 nM. Turning to `CC(=O)Nc1ccc(-c2ccc3nc(-c4ccc(C)c(NC(=O)C(C)(C)C)c4)cn3n2)cn1` [compound 505, N-(5-(6-(6-acetamidopyridin-3-yl)imidazo[1,2-b]pyridazin-2-yl)-2-methylphenyl)pivalamide], the half-inhibitory concentration (IC50) is 990 nM. In the case of `CC(=O)Nc1ncc(-c2ccc3nc(-c4ccc(C)c(NC(=O)C(C)(C)C)c4)cn3n2)s1` [Example 447, N-(5-(6-(2-acetamidothiazol-5-yl)imidazo[1,2-b]pyridazin-2-yl)-2-methylphenyl)pivalamide], the IC50 came out at 293 nM.

On to `Cc1ccc(-c2cn3nc(-c4cccc(CO)n4)ccc3n2)cc1NC(=O)C(C)(C)C` [Example 460, N-(5-(6-(6-(hydroxymethyl)pyridin-2-yl)imidazo[1,2-b]pyridazin-2-yl)-2-methylphenyl)pivalamide], for which the IC50 stood at 1120 nM.

Consider `COc1ccc2nc(-c3ccc(C)c(NC(=O)c4ccc(S(C)(=O)=O)cc4Cl)c3)cn2n1` [Example 95, 2-chloro-N-(5-(6-methoxyimidazo[1,2-b]pyridazin-2-yl)-2-methylphenyl)-4-(methylsulfonyl)benzamide], for which the IC50 was found to be 7860 nM. With `Cc1ccc(-c2cn3nc(-c4cc(CO)ccc4F)ccc3n2)cc1NC(=O)C(C)(C)C` [Example 275, N-(5-(6-(2-fluoro-5-(hydroxymethyl)phenyl)imidazo[1,2-b]pyridazin-2-yl)-2-methylphenyl)pivalamide], the IC50 amounted to 1800 nM. As for `Cc1ccc(-c2cn3nc(N)ccc3n2)cc1NC(=O)C(C)(C)C` [compound 591, N-(5-(6-aminoimidazo[1,2-b]pyridazin-2-yl)-2-methylphenyl)pivalamide], the IC50 is 578 nM.

On to `CC(C)(C)C(=O)Nc1cc(-c2cn3nc(NC4CCC(O)CC4)ccc3n2)ccc1C(F)(F)F` (stereo not drawn) [Example 314, N-(5-(6-(4-hydroxycyclohexylamino)imidazo[1,2-b]pyridazin-2-yl)-2-(trifluoromethyl)phenyl)pivalamide], for which the IC50 is 346 nM. For the compound `Cc1ccc(-c2cn3nc(-c4cccnc4C(F)(F)F)ccc3n2)cc1-c1cccc(C(F)(F)F)n1` [Example 441, 2-(4-methyl-3-(6-(trifluoromethyl)pyridin-2-yl)phenyl)-6-(2-(trifluoromethyl)pyridin-3-yl)imidazo[1,2-b]pyridazine], the IC50 was found to be 2560 nM. The same measure, in the same setting: the result for `Cc1ccc(-c2cn3nc(-c4cccc(N)n4)ccc3n2)cc1NC(=O)C(C)(C)C` [compound 575, N-(5-(6-(6-aminopyridin-2-yl)imidazo[1,2-b]pyridazin-2-yl)-2-methylphenyl)pivalamide] reads 599 nM; that for `Cc1ccc(-c2cn3nc(-c4cc(C(N)=NO)ccc4C)ccc3n2)cc1NC(=O)C(C)(C)C` [compound 577], 63 nM. For `CC(C)(C)C(=O)Nc1cc(-c2cn3nc(-c4cccnc4N)ccc3n2)ccc1C(F)(F)F` [Example 344, N-(5-(6-(2-aminopyridin-3-yl)imidazo[1,2-b]pyridazin-2-yl)-2-(trifluoromethyl)phenyl)pivalamide], the 50% inhibitory concentration (IC50) amounted to 8740 nM. Regarding `CCOC(=O)C=Cc1cccc(-c2ccc3nc(-c4ccc(C)c(NC(=O)C(C)(C)C)c4)cn3n2)c1` [compound 551], the IC50 was 364 nM.

Consider `COC(=O)CCCCC(=O)Nc1ccc(-c2ccc3nc(-c4ccc(C)c(NC(=O)C(C)(C)C)c4)cn3n2)c(C(F)(F)F)c1` [compound 510], for which the IC50 was 379 nM.

Staying with this test, now noted: hShh activation, read-out: Shh (IC50, inhibition of Hedgehog pathway activation).
Take `Cc1ccc(-c2cn3nc(-c4cccnc4C(F)(F)F)ccc3n2)cc1NC(=O)CCCCCCC(=O)O` [Example 430, 8-(2-methyl-5-(6-(2-(trifluoromethyl)pyridin-3-yl)imidazo[1,2-b]pyridazin-2-yl)phenylamino)-8-oxooctanoic acid]: the IC50 is 5430 nM.
